Data as given in patent US20060280725A1, “Compositions and methods of treating and diagnosing hepatoma” (priority 2003, published 2006).

Columns and labels:
[1] = test system: SK-Hep cells; assay: Cellular quantification (hemacytometer cell number, viability); type: cell-based, human; conditions: treatment with MFP
Experimental: FIG. 11. Effect of induced antisense RNA expression and glutamine deprivation on cellular proliferation and viability. Cultures of SK-Hep cells stably transfected with a 1.3 kb ATB^0 construct in the antisense orientation (Antisense 1-1) were treated at time zero with either inducer (FP, 10 nM), vehicle (ethanol, 0.1%) or maintained in the presence (+GLN) or absence (−GLN) of glutamine (DMEM+10% dialyzed FBS±2 mM L-GLN). At the indicated times thereafter, cell number was calculated after trypsmization and subsequent counting on a hemacytometer. The results represent the average±SD of five separate determinations. **p<0.010 versus-MFP. ††p<0.010 versus+GLN. […]
Cellular Quantification. Initial screens of the stably transfected sense and antisense ATB^0/ASCT2 clones to MFP induction utilized the colorimetric MTT (3-[4,5-Dimethylthiazol-2-yl]-2,5-diphenyltetrazolium bromide (Sigma)) assay as previously described (57), using a spectrophotometric plate reader at a wavelength of 562 nm (Bio-Tek EL311SX, Winooski, Vt.). The absorbance is considered to be directly proportional to the number of metabolically active mitochondria, and by extension, the number of cells. In subsequent studies, cell number was quantified directly. At specific times after experimental treatment (±MFP or ±glutamine), cells were removed from the culture dish via trypsinization and quantified on a hemacytometer. […]

[2] = test system: SK-Hep cells; assay: Na+-dependent glutamine transport assay in SK-Hep cells and transfected clones; type: cell-based, human; conditions: SK-Hep parent cells
Experimental: FIG. 10. Effect of induced ATB0/ASCT2 antisense RNA expression on Na^+-dependent glutamine uptake. Cultures of the SK-Hep parent cell line and SK-Hep cells stably transfected with a 1.3 kb ATB^0 construct in the sense orientation (Sense 2-1) or antisense orientation (Antisense 1-1) were treated with inducer (MFP, 10 nM) or vehicle (ethanol, 0.1%) at time zero. At the indicated times thereafter, the initial rate (30 s) Na^+-dependent transport velocity of 50 μM L-glutamine was measured by radiotracer analysis as described in the methods section. The results represent the average±SD of four separate determinations. *p<0.050 versus control. **p<0.010 versus control.
Glutamine Transport Assays. Measurement of initial-rate Na^+-dependent glutamine uptake was performed by radiotracer analysis using the cluster tray method described in detail previously (57). Initial rate transport velocities are expressed as the average±SD of at least four separate determinations. The transport data was analyzed for significant differences using a t-test with a p<0.050 considered significant.
Inpact of antisense ATB^0/ASCT2 RNA on glutamine transport rates. In order to determine the functional effect of targeting ATB^0/ASCT2 mRNA, glutamine transport rates were measured.

[3] = test system: Hep3B, PLC/PRF/5, Focus and THLE-5B cell lines; assay: Amino acid inhibition analysis of Na+-dependent glutamine transport; type: cell-based, human; conditions: for inhibition at 5000 µM: Homo sapiens, unlabeled amino acid at 5 mM, 50 μM L-glutamine, Hep3B, PLC/PRF/5, Focus, THLE-5B, read-out: inhibition of glutamine uptake
Experimental: (§1) FIG. 1. Amino acid inhibition analysis of glutamine transport in the Hep3B, PLC/PRF/5 and Focus human hepatoma cell lines and the THLE-5B SV40-immortalized human liver epithelial cell line. The Na^+-dependent transport of 50 μM L-glutamine was measured as described in the Methods section in the absence or presence of the indicated unlabeled amino acids at 5 mM. Testing of cysteine (CYSH) required the presence of 5 mM dithiothreitol (DTT) as a reducing agent, so DTT was tested alone as well. Arrows indicate the relative transport rates for 50 μM L-glutamine in primary human adult (solid arrow) and fetal (open arrow) hepatocytes. The results represent the average±SD of four separate determinations (*p<0.010 versus control). The Eadie-Hofstee plots of the kinetic analyses are shown as an inset in each figure, with the dashed lines representing the resolved high and low affinity components of the composite data (solid line). The derived values of the kinetic constants for each component are given in the Results section.
Glutamine Transport Assays. Measurement of initial-rate glutamine uptake was carried out via the cluster-tray method originally described by Gazzola (21) as reported previously (6, 9). Briefly, after trypsinization hepatoma cells were plated at a density of 1×10^5 cells/well in 24-well culture plates (Costar Corp., Cambridge, Mass.) and allowed to grow to >80% confluence, typically one to two days later. For initial-rate measurements, the radiotracer utilized was L-[G-^3H] glutamine (Amersham Corp., Arlington Heights, Ill.) at 4 μCi/ml, in the presence of unlabeled L-glutamine at 50 μM. For kinetic studies, the amount of unlabeled glutamine in the transport buffer varied from 10 μM to 10 mM. All transport measurements were carried out at 37° C. and were terminated after 30 s by three rapid washes with an ice-cold phosphate-buffered saline solution. Intracellular radiolabeled glutamine was extracted with 0.2 ml/well of 0.2% sodium dodecyl sulfate (SDS) and 0.2 N NaOH; after 1 h, 0.1 ml of the lysate was neutralized with 10 μl of 2 N HCl and subjected to scintillation spectrophotometry in a Packard TopCount™ (Packard Instruments, Meriden, Conn.). The remaining lysate was utilized for the determination of cellular protein by the bicinchoninic acid (BCA) method (Pierce Chemical Co., Rockford, Ill.). Rates of glutamine transport were calculated from the cpm per sample, the specific activity of the uptake mix (in cpm/nmol) and normalized to cellular protein content in a Microsoft Excel® spreadsheet program. Transport values obtained in the absence of extracellular Na^+ (diffusion and Na^+-independent uptake) were subtracted from those in the presence of Na^+ (total uptake) to yield Na^+-dependent rates which are reported in units of nmol•mg^−1 protein•30 s^−1. […]

[4] = test system: THLE-5B; assay: Glutamine transport assay (inhibition and kinetic analysis); type: cell-based, human; conditions: 5 mM, 50 μM L-glutamine, p<0.050
Experimental: as §1
(§2) Glutamine Transport Assays. Measurement of initial-rate glutamine uptake was carried out via the cluster-tray method originally described by Gazzola (21) as reported previously (6, 9). Briefly, after trypsinization hepatoma cells were plated at a density of 1×10^5 cells/well in 24-well culture plates (Costar Corp., Cambridge, Mass.) and allowed to grow to >80% confluence, typically one to two days later. For initial-rate measurements, the radiotracer utilized was L-[G-^3H] glutamine (Amersham Corp., Arlington Heights, Ill.) at 4 μCi/ml, in the presence of unlabeled L-glutamine at 50 μM. For kinetic studies, the amount of unlabeled glutamine in the transport buffer varied from 10 μM to 10 mM. All transport measurements were carried out at 37° C. and were terminated after 30 s by three rapid washes with an ice-cold phosphate-buffered saline solution. Intracellular radiolabeled glutamine was extracted with 0.2 ml/well of 0.2% sodium dodecyl sulfate (SDS) and 0.2 N NaOH; after 1 h, 0.1 ml of the lysate was neutralized with 10 μl of 2 N HCl and subjected to scintillation spectrophotometry in a Packard TopCount™ (Packard Instruments, Meriden, Conn.). The remaining lysate was utilized for the determination of cellular protein by the bicinchoninic acid (BCA) method (Pierce Chemical Co., Rockford, Ill.). Rates of glutamine transport were calculated from the cpm per sample, the specific activity of the uptake mix (in cpm/nmol) and normalized to cellular protein content in a Microsoft Excel® spreadsheet program. Transport values obtained in the absence of extracellular Na^+ (diffusion and Na^+-independent uptake) were subtracted from those in the presence of Na^+ (total uptake) to yield Na^+-dependent rates which are reported in units of nmol•mg^−1 protein•30 s^−1. All transport values depicted are the average±standard deviation of four separate determinations. Kinetic analysis of Eadie-Hofstee linearized transport data (v vs. v/[L-GLN]) was performed by regression analysis (Cricket Graph®, Computer Associates, Islandia, N.Y.). Nonlinear regression analysis was performed with DataDesk (Data Description, Inc. Ithaca, N.Y.) and Excel for two component Michaelis-Menten kinetics: v=((Vmax1×[S])/(Km1+[S])+(Vmax2×[S])/(Km2+[S])).
It should be noted that extensive depletion of intracellular amino acid pools were not performed prior to transport measurements in these studies because we sought to assess glutamine uptake under more physiological conditions. […]

[5] = test system: human fetal liver fibroblasts (HFLF); assay: as above; type: cell-based; conditions: 5 mM, 50 μM L-glutamine
Experimental: FIG. 5. Functional and molecular assessment of ATB^0 expression in human fetal liver fibroblasts (HFLF) and cirrhotic liver tissue. A) Amino acid inhibition analysis of Na^+-dependent glutamine uptake in human fetal liver fibroblasts. Fibroblasts were isolated and cultured as described in the Methods section, and amino acid inhibition analysis of 50 μM L-glutamine uptake was carried out as described in FIG. 1. *p<0.010 vs. control. The Eadie-Hofstee plot of the kinetic analysis is shown as an inset, with the dashed lines representing the resolved high and low affinity components of the composite data (solid line). The derived values of the kinetic constants for each component are given in the Results section. B) Northern blot analysis of ATB^0 expression in HFLF. Radiolabeled cDNA probes were generated with the Megaprime™ kit as described in the Methods section, and hybridized to 20 μg of total RNA from HFLF. Exposure time was 24 h. C) RT-PCR and restriction enzyme analysis of ATB^0 expression in HFLF, normal and cirrhotic liver. The analysis was carried out exactly as described in FIG. 3. Omission of RT is shown for the normal liver sample. D) Expression of ATB^0 in biopsies from a patient with liver cirrhosis and hepatocellular carcinoma (HCC). Northern blot analysis of ATB^0 & SN1 expression were performed on RNA extracted from the snap-frozen biopsies. RNA isolation and northern blot analysis was carried out as described in the Methods section, with full-length riboprobes used for detection of transporter mRNA. Exposure times for the blots are shown to illustrate relative expression levels for ATB^0 in each of the samples.
as §2, with “v=((Vmax1×[S])/(Km1+[S])+(Vmax2×[S])/(Km2+[S])). […]” for “v=((Vmax1×[S])/(Km1+[S])+(Vmax2×[S])/(Km2+[S])).”

[6] = test system: SK-Hep cells; assay: Poly IC treatment of SK-Hep cells (growth, viability, apoptosis); type: cell-based, human
Experimental: Possible role of a PKR response in hepatoma apoptosis. Given the marked effect of induced ATB^0/ASCT2 antisense RNA expression on hepatoma viability and apoptosis, the possibility that the transporter knockdown response was a nonspecific double stranded RNA-dependent protein kinase (PKR) (62) mediated event was considered. To this end, cells were treated with Polyriboinosinic-polyribocytidylic acid (poly IC)—a mimic of double stranded RNA and stimulator of PKR in mammalian cells.
The mechanism leading from ATB^0/ASCT2 inhibition to apoptosis is unclear, but is currently being investigated. As we ruled out a nonspecific double stranded RNA (PKR) response (FIG. 14), we hypothesize that another cellular stress pathway links transporter suppression to apoptosis. Specifically, oxidative stress may be involved due to the likely loss of the antioxidant glutathione after diminution of its precursor glutamine (65, 66). PKR phosphorylates the α chain of the eukaryotic translation initiation factor eIF2 inhibiting the guanine nucleotide exchange factor eIF2B and turning off protein synthesis. In this respect, the selective expression of ATB^0/ASCT2 in cancerous versus normal human liver cells remains important since tumor-specific activation of PKR has recently been used to inhibit glioma growth in vivo [68]. […]

## CC#C[C@]1(O)CC[C@H]2[C@@H]3CCC4=CC(=O)CCC4=C3[C@@H](c3ccc(N(C)C)cc3)C[C@@]21C [MFP, mifepristone]
[1]
  growth of the SK-Hep parent cell line: unaffected
[2]; 14 h MFP 10 nM, p<0.050, not reproduced in subsequent studies
  decrease in glutamine transport rates: 23%
[2]; 24 h MFP
  decrease in glutamine transport rates: not observed

## CNC(C)(C)C(=O)O [MeAIB, alpha-(methylamino)isobutyric acid, reference compound]
[3]; 5 mM, all cell lines except THLE-5B
  inhibition of glutamine uptake: failed to significantly inhibit glutamine uptake
[4]
  diminished glutamine uptake: 29%
[5]
  inhibition of Na+-dependent glutamine uptake: not

## C[C@H](N)C(=O)O [alanine, reference compound]
[3]
  inhibition at 5000 µM: > 80%
[5]
  inhibition of Na+-dependent glutamine uptake: marked inhibition

## N[C@@H](CS)C(=O)O [cysteine, reference compound]
[3]
  inhibition at 5000 µM: > 80%
[5]
  inhibition of Na+-dependent glutamine uptake: marked inhibition

## N[C@@H](CO)C(=O)O [serine, reference compound]
[3]
  inhibition at 5000 µM: > 80%
[5]
  inhibition of Na+-dependent glutamine uptake: marked inhibition

## Polyriboinosinic-polyribocytidylic acid [poly IC]
[6]
  apoptotic response in SK-Hep cells: failed to elicit the apoptotic response
  growth or viability of SK-Hep cells: failed to impact growth or viability
